Data from patent publication US12551527B2, “Drug delivery systems for treatment of infections” (Wayne State University, priority 2017, dated 2026).
Read-outs that look alike come from different tables or passages of the source.

What was measured:
ATCC 29213 (MSSA strain) = assay: MIC by broth microdilution susceptibility testing; assay type: cell-based; details: Staphylococcus aureus
Experimental: (§1) Susceptibility Testing. […] The strains tested were SA 494 and ATCC 29213.
(§2) Susceptibility testing. […] The treatment groups were compared to their commercial drug counterparts, both individually and in combination. […] SA 494 is the MRSA strain, and ATCC 29213 is the MSSA strain. The results were obtained as follows:
(§3) To test the effect of the presence of one drug that may enhance the MIC of the other in combination, combination MIC studies were performed. […] The results for MIC of liposomal CFZ in 0.5×the MIC of liposomal VAN were as follows:
(§4) However, liposomal VAN+CFZ [L (VAN+CFZ)] performed much better as compared to commercial VAN+CFZ (a mixture of non-liposomal antibiotics) in MRSA 494/MSSA 29213. The L(VAN+CFZ) has more than >2-4 fold improvement of MIC as compared to VAN+CFZ. Lower the MIC, the better is the MRSA killing.

SA 494 (MRSA strain) = assay: MIC by broth microdilution susceptibility testing; assay type: cell-based; details: Staphylococcus aureus
Experimental: as §1, §2, §3, §4

[1] = cited from earlier work
ATCC 29213 = assay: Time-kill analysis in 24 well plates (CLSI); assay type: cell-based, Staphylococcus aureus; details: tested at 1/2×MIC, 1×MIC, 24 h, FIG. 13B
Experimental: Time kill analysis was performed in 24 well plates according to CLSI guidelines (Patel 2017. M100: Performance Standards for Antimicrobial Susceptibility Testing, 27th Edition .224). Bactericidal activity was defined as >3 log CFU/ml reduction from baseline (initial inoculum). […] Lower the MIC, the better is the MRSA killing.

MRSA 494 biofilm = assay: Biofilm disruption, pin lid method (Calgary biofilm device); assay type: cell-based, Staphylococcus aureus; details: FIG. 14, FIG. 15
Experimental: The Minimum Inhibitory […] (MIC) in presence of biofilm was determined using the pin lid method or Calgary biofilm device (Barber et al., Antimicrob Agents Chemother. 58(5):2989-92, 2014; De Oliveira et al., Int J Mol Sci. 17(9), 2016). This method is used for defining the biofilm MIC vs. antibiotic or combination of antibiotics.

MIC (ATCC 29213 (MSSA strain); MSSA 29213, Example 4 table, read-out: MIC values) [µg/mL]	MIC (ATCC 29213 (MSSA strain); strain 29213 (MSSA), broth microdilution, 24 h at 35° C., Example 1, read-out: MC Values (MIC)) [µg/mL]	MIC (SA 494 (MRSA strain); MRSA 494, Example 4 table, read-out: MIC values) [µg/mL]	MIC (SA 494 (MRSA strain); strain 494 (MRSA), broth microdilution, 24 h at 35° C., Example 1, read-out: MC Values (MIC)) [µg/mL]	SMILES	log P [1]	MIC (ATCC 29213 (MSSA strain); 24 h, read-out: MC Values (MIC)) [µg/mL]	MIC (ATCC 29213 (MSSA strain); read-out: MIC values) [µg/mL]	MIC (SA 494 (MRSA strain); MRSA, 24 h, read-out: MC Values (MIC)) [µg/mL]	MIC (SA 494 (MRSA strain); MRSA, read-out: MIC values) [µg/mL]	time-kill result (ATCC 29213)	biofilm disruption (in words) (MRSA 494 biofilm)
0.5	0.5	> 64	> 16	Cc1nnc(SCC2=C(C(=O)O)N3C(=O)[C@@H](NC(=O)Cn4cnnn4)[C@H]3SC2)s1 [CCFZ, cefazolin]	−0.58						
				CN[C@H](CC(C)C)C(=O)N[C@H]1C(=O)N[C@@H](CC(N)=O)C(=O)N[C@H]2C(=O)N[C@H]3C(=O)N[C@H](C(=O)N[C@H](C(=O)O)c4cc(O)cc(O)c4-c4cc3ccc4O)[C@H](O)c3ccc(c(Cl)c3)Oc3cc2cc(c3O[C@@H]2O[C@H](CO)[C@@H](O)[C@H](O)[C@H]2O[C@H]2C[C@](C)(N)[C@H](O)[C@H](C)O2)Oc2ccc(cc2Cl)[C@H]1O [CVAN, vancomycin]		0.5	0.5	1	1	grow above the initial inoculum at 24 h	barely showed any anti-biofilm effect
